Results on seven compounds are retold here after publication PMC11141402, “Cyclic β^2,3-amino acids improve the serum stability of macrocyclic peptide inhibitors targeting the SARS-CoV-2 main protease” (Bulletin of the Chemical Society of Japan, 2024).

*1 amine or outer side, *2 acyl side, *3 side chain or, on linkers, in order; H or OH if unused. Where a SMILES comes first, the peptide text is derived from it. Bridges are numbered along the chain shown (N, C = ends). [ ]: non-standard residue; d: D form. ACHC(1S,2S) = O=C([C@H]1CCCC[C@@H]1N[*:1])[*:2]; X1 = O=C([C@@H]1CCC[C@@H]1N[*:1])[*:2]

The target of data set [1] is T1, SARS-CoV-2 M^pro (Severe acute respiratory syndrome coronavirus 2, UniProt P0DTD1).
T1 construct: also known as 3-chymotrypsin-like cysteine protease (3CL^pro) and nonstructural protein 5 (nsp5)
Put plainly: biochemical. It counts as binding. The settings on record: for kon: read-out: ka (kinetic association).

Data set [2] in a line: Serum stability assay in human serum, LC/MS. It counts as in vitro ADME. The following applies: 37 °C, peptide 10 μM, up to 168 h, mean ± s.d. (n = 3), read-out: t1/2 in serum (converted). As for the experimental part: A synthetic macrocyclic peptide (10 μM) and a serum-resistant internal standard peptide consisting only of D-amino acids (NH2-PEG5-wstndwstnd-PEG5-CONH2, 5 μM) were mixed and incubated in human serum (Cosmo Bio, 12181201) at 37 °C for up to 168 h.[16] At each time point, 4 μL of the mixture was removed and quenched by adding 12 μL of methanol, followed by incubation on ice for 15 min. Following centrifugation (15,000 × g, 25 °C, 10 min), 10 μL of the supernatant was mixed with 40 μL of 1% (v/v) TFA in water. Following centrifugation (15,000 × g, 25 °C, 5 min), the supernatant was analyzed using LC/MS employing a reverse-phase column (ACQUITY UPLC BEH C18, 1.7 μm, 2.1 × 150 mm; Waters) and a Xevo G2-XS QTof system (Waters) with a linear gradient from 1% B to 61% B. Buffer A: water with 0.1% (v/v) formic acid; buffer B: acetonitrile with 0.1% (v/v) formic acid. The percentages of remaining peptides were determined by using the peak area integration of the chromatograms. The obtained LC/MS data were analyzed using a MassLynx 4.1 (Waters).

Data set [3] concerns the target T1, SARS-CoV-2 M^pro. Nature of the data set: biochemical.

Take `CC(C)C[C@@H]1NC(=O)[C@H]2CCCC[C@@H]2NC(=O)[C@H](CC(N)=O)NC(=O)[C@H](CC(=O)O)NC(=O)[C@H](Cc2ccc(O)cc2)NC(=O)[C@H](CCCNC(=N)N)NC(=O)[C@H](Cc2c[nH]cn2)NC(=O)[C@H](Cc2ccccc2)NC(=O)[C@@H](Cc2ccc(O)cc2)NC(=O)CSC[C@H](C(N)=O)NC(=O)[C@H](Cc2ccc(O)cc2)NC(=O)[C@H](C(C)C)NC1=O` [BM3, ^AcyFHRYDNβ^2LVYc-NH2] ({CH2CO}-[dY]FHRYDN[ACHC(1S,2S)]LVY[dC]-NH2; thioether N-12): at SARS-CoV-2 M^pro [1], binding was put at a Kd of 7.7 nM and the kon turned out to be 810000 M⁻¹ s⁻¹. Also, in data set [2], the half-life at 10 μM was 48 h. Also, the IC50 at SARS-CoV-2 M^pro [3] is 40 nM.

For the compound `CC(C)C[C@@H]1NC(=O)[C@H](C)NC(=O)[C@H](CC(N)=O)NC(=O)[C@H](CC(=O)O)NC(=O)[C@H](Cc2ccc(O)cc2)NC(=O)[C@H](CCCNC(=N)N)NC(=O)[C@H](Cc2c[nH]cn2)NC(=O)[C@H](Cc2ccccc2)NC(=O)[C@@H](Cc2ccc(O)cc2)NC(=O)CSC[C@H](C(N)=O)NC(=O)[C@H](Cc2ccc(O)cc2)NC(=O)[C@H](C(C)C)NC1=O` [BM3A, ^AcyFHRYDNA LVYc-NH2] ({CH2CO}-[dY]FHRYDNALVY[dC]-NH2; thioether N-12), the Kd at SARS-CoV-2 M^pro [1] is more than 10000 nM. Besides, the half-life at 10 μM in data set [2] was 4.6 h. The IC50 at SARS-CoV-2 M^pro [3] was more than 25000 nM.

On to `CC(C)C[C@@H]1NC(=O)[C@@H](Cc2ccc(O)cc2)NC(=O)CSC[C@H](C(N)=O)NC(=O)[C@H](Cc2ccccc2)NC(=O)[C@H](Cc2c[nH]cn2)NC(=O)[C@@H]2CCCN2C(=O)[C@H](CC(N)=O)NC(=O)[C@@H]2CCC[C@@H]2NC(=O)[C@H]([C@@H](C)O)NC(=O)[C@H](Cc2c[nH]cn2)NC1=O` [BM4, ^AcyLHTβ^1NPHFc-NH2] ({CH2CO}-[dY]LHT[X1]NPHF[dC]-NH2; thioether N-10), for which, on SARS-CoV-2 M^pro [1], binding was put at a Kd of 1200 nM and the kon was determined as 1700 M⁻¹ s⁻¹. The compound also had an IC50 against SARS-CoV-2 M^pro [3] of more than 8000 nM.

For `CC(C)C[C@@H]1NC(=O)[C@H](CC(N)=O)NC(=O)[C@H](Cc2c[nH]cn2)NC(=O)[C@H](Cc2ccccc2)NC(=O)[C@@H]2CCC[C@@H]2NC(=O)[C@H](Cc2c[nH]cn2)NC(=O)[C@H](Cc2ccccc2)NC(=O)[C@@H](Cc2ccc(O)cc2)NC(=O)CSC[C@H](C(N)=O)NC(=O)[C@H](Cc2c[nH]cn2)NC(=O)[C@H](CC(C)C)NC(=O)[C@H](CCCNC(=N)N)NC(=O)[C@H](Cc2ccccc2)NC1=O` [BM5, ^AcyFHβ^1FHNLFRLHc-NH2] ({CH2CO}-[dY]FH[X1]FHNLFRLH[dC]-NH2; thioether N-13), at SARS-CoV-2 M^pro [1], binding was put at a Kd of 22 nM and the kon worked out at 36000 M⁻¹ s⁻¹. Half-maximal inhibition at SARS-CoV-2 M^pro [3] (IC50) required 360 nM.

On to `CC(C)C[C@@H]1NC(=O)[C@H](CO)NC(=O)[C@H](CCCNC(=N)N)NC(=O)[C@H](Cc2ccccc2)NC(=O)[C@@H]2CCC[C@@H]2NC(=O)[C@H](Cc2c[nH]cn2)NC(=O)[C@H](Cc2ccccc2)NC(=O)[C@@H](Cc2ccc(O)cc2)NC(=O)CSC[C@H](C(N)=O)NC(=O)CNC(=O)[C@H](Cc2ccccc2)NC(=O)[C@H](C(C)C)NC(=O)[C@H](Cc2ccccc2)NC1=O` [BM6, ^AcyFHβ^1FRSLFVFGc-NH2] ({CH2CO}-[dY]FH[X1]FRSLFVFG[dC]-NH2; thioether N-13), for which, on SARS-CoV-2 M^pro [1], the Kd was 2.9 nM and the kon came out at 260000 M⁻¹ s⁻¹. On SARS-CoV-2 M^pro [3], half-maximal inhibition (IC50) required 2150 nM.

Turning to `CC(C)C[C@@H]1NC(=O)[C@H](Cc2c[nH]cn2)NC(=O)[C@H](Cc2ccc(O)cc2)NC(=O)[C@@H]2CCC[C@@H]2NC(=O)[C@H](CC(=O)O)NC(=O)[C@H](Cc2ccccc2)NC(=O)[C@@H](Cc2ccc(O)cc2)NC(=O)CSC[C@H](C(N)=O)NC(=O)[C@H](CCCNC(=N)N)NC(=O)[C@@H]2CCC[C@@H]2NC(=O)[C@H](CC(N)=O)NC1=O` [BM7, ^AcyFDβ^1YHLNβ^1Rc-NH2] ({CH2CO}-[dY]FD[X1]YHLN[X1]R[dC]-NH2; thioether N-11), at SARS-CoV-2 M^pro [1], the affinity, expressed as Kd, was 9.6 nM and the kon was determined as 170000 M⁻¹ s⁻¹. Also, in data set [2], the half-life at 10 μM is more than 168 h. This compound returned an IC50 at SARS-CoV-2 M^pro [3] of 20 nM.

On SARS-CoV-2 M^pro [1], `CC(C)C[C@@H]1NC(=O)[C@H](Cc2c[nH]cn2)NC(=O)[C@H](Cc2ccc(O)cc2)NC(=O)[C@H](C)NC(=O)[C@H](CC(=O)O)NC(=O)[C@H](Cc2ccccc2)NC(=O)[C@@H](Cc2ccc(O)cc2)NC(=O)CSC[C@H](C(N)=O)NC(=O)[C@H](CCCNC(=N)N)NC(=O)[C@H](C)NC(=O)[C@H](CC(N)=O)NC1=O` [BM7A, ^AcyFDA YHLNA Rc-NH2] ({CH2CO}-[dY]FDAYHLNAR[dC]-NH2; thioether N-11) registered a Kd of more than 10000 nM. Moreover, in data set [2], the half-life at 10 μM is 4.2 h. On SARS-CoV-2 M^pro [3], this compound gave an IC50 of more than 25000 nM.

By Kd is commonly meant the equilibrium constant for the complex coming apart. A higher Kd goes with weaker binding. Broadly, the IC50 is the point on the concentration scale where inhibition reaches its midpoint. Low readings indicate greater potency, high ones weaker potency.
